Data taken from patent US8114880B2, “Piperidine or piperazine substituted tetrahydro-naphthalene-1-carboxylic acid MTP inhibiting compounds” (Janssen Pharmaceutica N.V., priority 2006, dated 2012).

Legend:
HepG2 cells = test: Quantification of the secretion of ApoB; type: cell-based; conditions: Homo sapiens, HepG2, 24 h, 24 hours of incubation, pIC50 = -log IC50
Protocol: HepG2 cells were cultured in 24-well plates in MEM Rega 3 containing 10% fetal calf serum. At 70% confluency, the medium was changed and the test compound or carrier (DMSO, 0.4% final concentration) was added. After 24 hours of incubation, the medium was transferred to Eppendorf tubes and cleared by centrifugation. A sheep antibody directed against either apoB was added to the supernatant and the mixture was kept at 8° C. for 24 hours. Then, rabbit anti-sheep antibody was added and the immune complex was allowed to precipitate for 24 hours at 8° C. The immunoprecipitate was pelleted by centrifugation for 25 minutes at 1320 g and washed twice with a buffer containing 40 mM Mops, 40 mM NaH2PO4, 100 mM NaF, 0.2 mM DTT, 5 mM EDTA, 5 mM EGTA, 1% Triton-X-100, 0.5% sodium deoxycholate (DOC), 0.1% SDS, 0.2 μM leupeptin and 0.2 μM PMSF. Radioactivity in the pellet was quantified by liquid scintillation counting. The IC50 values are usually converted to pIC50 values (=−log IC50 value) for ease of use.

MTP = MTP (Homo sapiens, UniProt P55157); test: MTP assay (triglyceride transfer from donor to acceptor vesicles); type: biochemical; conditions: MTP activity, percent triglyceride transfer from donor to acceptor vesicles, 37° C.
How it was run: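 Radiolabelled triglyceride transfer from donor vesicles (phosphatidylcholine, 7.5 mol % cardiolipin, 0.25 mol % glycerol tri[1-^14C]-oleate) to phosphatidylcholine acceptor vesicles with BSA, pH 7.5 Tris buffer; compounds in DMSO (0.13% final), 5 min preincubation at 37° C before MTP addition. Donor vesicles removed on DEAE-52; acceptor-supernatant ^14C counts give percent transfer.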

Chain of MTP (P55157 19-894, species assumed): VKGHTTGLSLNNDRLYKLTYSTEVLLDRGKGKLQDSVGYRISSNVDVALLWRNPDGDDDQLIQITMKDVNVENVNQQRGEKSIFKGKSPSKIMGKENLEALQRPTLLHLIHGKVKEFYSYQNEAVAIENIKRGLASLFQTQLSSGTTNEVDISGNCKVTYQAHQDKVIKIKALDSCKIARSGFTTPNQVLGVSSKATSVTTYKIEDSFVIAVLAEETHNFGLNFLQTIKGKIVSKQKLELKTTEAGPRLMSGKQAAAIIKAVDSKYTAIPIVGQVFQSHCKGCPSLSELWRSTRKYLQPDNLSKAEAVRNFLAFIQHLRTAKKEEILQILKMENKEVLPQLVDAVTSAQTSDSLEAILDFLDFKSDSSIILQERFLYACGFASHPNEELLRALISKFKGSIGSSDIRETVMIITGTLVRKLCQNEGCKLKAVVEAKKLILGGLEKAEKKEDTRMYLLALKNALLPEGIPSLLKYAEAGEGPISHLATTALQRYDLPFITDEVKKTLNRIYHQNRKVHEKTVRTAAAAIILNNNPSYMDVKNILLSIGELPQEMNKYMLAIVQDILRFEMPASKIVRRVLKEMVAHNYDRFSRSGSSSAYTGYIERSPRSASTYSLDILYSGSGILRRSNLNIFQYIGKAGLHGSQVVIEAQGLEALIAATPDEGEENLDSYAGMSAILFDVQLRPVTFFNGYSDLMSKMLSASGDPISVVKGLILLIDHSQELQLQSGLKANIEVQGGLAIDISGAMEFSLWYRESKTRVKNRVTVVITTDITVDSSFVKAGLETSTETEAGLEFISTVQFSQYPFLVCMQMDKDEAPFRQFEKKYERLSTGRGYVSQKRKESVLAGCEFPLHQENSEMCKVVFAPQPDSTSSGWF
Chain of MTP (P07237 18-508 partner, species assumed): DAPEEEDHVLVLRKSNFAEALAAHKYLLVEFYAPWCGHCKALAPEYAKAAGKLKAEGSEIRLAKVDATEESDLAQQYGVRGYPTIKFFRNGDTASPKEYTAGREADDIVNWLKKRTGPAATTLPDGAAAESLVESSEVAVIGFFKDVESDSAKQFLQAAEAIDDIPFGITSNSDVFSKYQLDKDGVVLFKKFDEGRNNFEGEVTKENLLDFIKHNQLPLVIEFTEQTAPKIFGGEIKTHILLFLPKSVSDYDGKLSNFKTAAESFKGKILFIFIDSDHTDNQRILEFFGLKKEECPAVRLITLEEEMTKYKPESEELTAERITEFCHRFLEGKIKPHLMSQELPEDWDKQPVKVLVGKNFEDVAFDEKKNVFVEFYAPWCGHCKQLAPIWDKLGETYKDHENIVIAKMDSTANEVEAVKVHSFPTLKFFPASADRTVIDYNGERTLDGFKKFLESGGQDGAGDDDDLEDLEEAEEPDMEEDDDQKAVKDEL

Row | SMILES | IC50 (HepG2 cells) [nM] | IC50 (MTP) [nM]
1 | CCNC(=O)[C@]1(c2ccccc2)CC[C@@H](C(=O)N2CCC(NC(=O)c3ccc(Cl)cc3OC)CC2)c2ccccc21 [Co. No. 21] | 27.6 | 9.84
2 | CCOC(=O)CC[C@H](NC(=O)[C@@]1(c2ccccc2)CC[C@H](C(=O)N2CCC(NC(=O)c3ccccc3OC)CC2)c2ccccc21)C(=O)OCC [Co. No. 74] | > 1000 | 5.08
3 | CCOC(=O)CC(C)NC(=O)[C@@]1(c2ccccc2)CC[C@H](C(=O)N2CCC(NC(=O)c3ccccc3OC)CC2)c2ccccc21 (stereo partly shown) [Co. No. 200] | 255 | 6.79
4 | CCOC(=O)[C@]1(c2ccccc2)CC[C@@H](C(=O)N2CCC(NC(=O)c3ccccc3OC)CC2)c2ccccc21 [Co. No. 35] | 5370 | 1710
5 | CCOC(=O)[C@]1(c2ccccc2)CC[C@@H](C(=O)N2CCC(NC(=O)c3ccccc3O)CC2)c2ccccc21 [Co. No. 42] | 1000 | > 10000
6 | CCNC(=O)[C@]1(c2ccccc2)CC[C@@H](C(=O)N2CC[C@@H](NC(=O)c3ccccc3OC)[C@@H](OC)C2)c2ccccc21 [Co. No. 20] | 22.9 | 12.6
7 | CCOC(=O)CCCCNC(=O)[C@@]1(c2ccccc2)CC[C@H](C(=O)N2CCC(NC(=O)c3ccccc3OC)CC2)c2ccccc21 [Co. No. 205] | 75.5 | 5.45
8 | COC(=O)CCNC(=O)[C@]1(c2ccccc2)CC[C@@H](C(=O)N2CCC(NC(=O)c3cccnc3OC)CC2)c2ccccc21 [Co. No. 262] | > 1000 | > 1000
9 | CCOC(=O)[C@@]1(c2ccccc2)CC[C@H](C(=O)N2CCC(NC(=O)c3ccccc3O)CC2)c2ccccc21 [Co. No. 36] | 11.7 | 3.47
10 | CCOC(=O)[C@H](CCCCNC(=O)OC(C)(C)C)NC(=O)[C@@]1(c2ccccc2)CC[C@H](C(=O)N2CCC(NC(=O)c3ccccc3OC)CC2)c2ccccc21 [Co. No. 210] | 8.67 | 2.95
11 | CC(C)OC(=O)CCNC(=O)[C@@]1(c2ccccc2)CC[C@H](C(=O)N2CCC(NC(=O)c3cccnc3N3CCN(C)CC3)CC2)c2ccccc21 [Co. No. 277] | 108 | 11.4
12 | CC(C)OC(=O)CCNC(=O)[C@@]1(c2ccccc2)CC[C@H](C(=O)N2CCC(NC(=O)c3ccccc3N3CCN(C)CC3)CC2)c2ccccc21 [Co. No. 276] | 75.2 | 3.49
13 | CCOC(=O)[C@]1(c2ccccc2)CC[C@@H](C(=O)N2CCC(NC(=O)c3ccccc3N3CCOCC3)CC2)c2ccccc21 [Co. No. 252] | 3.52 | 2.49
14 | CCOC(=O)[C@@]1(c2ccccc2)CC[C@H](C(=O)N2CCC(NC(=O)c3cccnc3OC)CC2)c2ccccc21 [Co. No. 253] | 3.24 | 0.984
15 | CCOC(=O)[C@@]1(c2cccc(F)c2)CC[C@@H](C(=O)N2CCC(NC(=O)c3ccccc3OC)CC2)c2cc(F)ccc21 [Co. No. 273] | 1000 | 165
16 | CCNC(=O)[C@@]1(c2ccccc2)CC[C@H](C(=O)N2CCC(NC(=O)c3ccccc3OC)CC2)c2ccccc21 (single isomer, unassigned) [Co. No. 39] | 3.13 | 3
17 | COC(=O)[C@]1(c2ccccc2)CC[C@@H](C(=O)N2CCC(NC(=O)c3cc(C)ccc3OC)CC2)c2ccccc21 [Co. No. 51] | 9.51 | 12.8
18 | CCOC(=O)[C@H](CCCCNC(=O)OC(C)(C)C)NC(=O)[C@@]1(c2ccccc2)CC[C@H](C(=O)N2CCC(NC(=O)c3cccn(C)c3=O)CC2)c2ccccc21 [Co. No. 231] | > 1000 | > 100
19 | COc1ccccc1C(=O)NC1CCN(C(=O)[C@H]2CC[C@@](C(=O)NCCC(=O)O)(c3ccccc3)c3ccccc32)CC1 [Co. No. 90] | > 1000 | 2130
20 | COc1ccccc1C(=O)NC1CCN(C(=O)[C@H]2CC[C@@](C(=O)N[C@@H](CC(=O)OC(C)(C)C)C(=O)OC(C)(C)C)(c3ccccc3)c3ccccc32)CC1 [Co. No. 106] | 185 | 16.1
